Test systems include A549; CAKI-1; CCRF-CEM; COLO 205; EKVX; HCC 2998; MCF7; MDA-MB-231; MDA-MB-435; MDA-N; NCI-H522; NCI/ADR-RES; OVCAR-4; OVCAR-5; OVCAR-8; PC-3; SF-268; SK-MEL-5; SR.
Holding throughout (test): NCI anticancer screen, dose series, 48 h

Molecules are shown by their SMILES.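 Exposure lasted 48 hours, with cells grown in 96-well plates and compounds tested at five concentrations. GI50 marks 50% less growth.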 Activity calls are given as the source filed them. Rule as the data show it: active = GI50 up to about 1.1 µM and inactive = higher. Some results are limits rather than exact numbers.

As for `O=C1Nc2ccccc2/C1=C1/Nc2ccccc2/C1=N/OCCOCCO`, the GI50 is 1.69 µM (inactive) in the assay on A549; 0.201 µM (active) with CAKI-1; 3.27 µM (inactive) in the assay with CCRF-CEM; 1.39 µM (inactive) in the assay with COLO 205; 2.67 µM (inactive) in the assay with EKVX; 2.76 µM (inactive) with HCC 2998. For the same compound, the GI50 is 1.99 µM (inactive) in the assay on MCF7; 5.93 µM (inactive) in the assay with MDA-MB-231; 3.15 µM (inactive) with MDA-MB-435; 3.24 µM (inactive) in the assay with MDA-N; 2.47 µM (inactive) with NCI-H522; 4.17 µM (inactive) in the assay on NCI/ADR-RES. Moreover, the GI50 with OVCAR-4 was 7.19 µM (inactive); with OVCAR-5, 4.62 µM (inactive); in the assay with OVCAR-8, 3.91 µM (inactive); with PC-3, 2.36 µM (inactive); in the assay with SF-268, 3.19 µM (inactive); with SK-MEL-5 it was 1.57 µM (inactive). In addition, the GI50 in the assay on SR is 1.68 µM (inactive).
For `CC1(C)O[C@H]2OC(CO)C(N=[N+]=[N-])[C@H]2O1` (stereo partly specified), the GI50 with A549, in the assay on CAKI-1, in the assay with CCRF-CEM, in the assay with COLO 205, in the assay on EKVX and with HCC 2998 was > 100 µM (inactive) in each case. Moreover, the GI50 in the assay on MCF7, in the assay with MDA-MB-231, with MDA-MB-435, in the assay on MDA-N, in the assay with NCI-H522 and in the assay with NCI/ADR-RES was > 100 µM (inactive) each time. Further, the GI50 with OVCAR-4, in the assay on OVCAR-5, in the assay on OVCAR-8, in the assay with PC-3, with SF-268 and with SK-MEL-5 was > 100 µM (inactive) each time. Also, the GI50 in the assay on SR is > 100 µM (inactive).
As to `CCOC(=O)C1C(=O)CC(O)(c2ccccc2)C(C(=O)OCC)C1c1ccc(OC)cc1` (stereo unspecified), the GI50 was 47 µM (inactive) in the assay on A549; 44.8 µM (inactive) with CAKI-1; 18.2 µM (inactive) with CCRF-CEM; 12.8 µM (inactive) with COLO 205; > 50.7 µM (inactive) with EKVX; 37.9 µM (inactive) in the assay with HCC 2998. The GI50 in the assay with MCF7 was 27 µM (inactive); in the assay with MDA-MB-231, 22.2 µM (inactive); in the assay on MDA-MB-435, 3.24 µM (inactive); in the assay on MDA-N, 3.18 µM (inactive); with NCI-H522, 5.69 µM (inactive); in the assay on NCI/ADR-RES, 19.6 µM (inactive). For the same compound, the GI50 with OVCAR-4 is 28.6 µM (inactive); with OVCAR-5, 50.6 µM (inactive); in the assay on OVCAR-8, 33.4 µM (inactive); in the assay with PC-3, 16.4 µM (inactive); with SF-268, 30.1 µM (inactive); in the assay with SK-MEL-5 it was 19.1 µM (inactive). Moreover, the GI50 in the assay on SR was 4.23 µM (inactive).
As for `CC[C@@H](C)[C@H](NC(=O)[C@H](Cc1ccccc1)NCC(F)(F)F)C(=O)OC(C)(C)C`, the GI50 with A549 is > 100 µM (inactive); in the assay on CAKI-1, > 100 µM (inactive); in the assay on CCRF-CEM, 74.8 µM (inactive); in the assay with COLO 205, > 100 µM (inactive); in the assay on EKVX, > 100 µM (inactive); in the assay on HCC 2998, > 100 µM (inactive). Besides, the GI50 with MCF7, with MDA-MB-231, in the assay on MDA-MB-435, with MDA-N, in the assay with NCI-H522 and in the assay with NCI/ADR-RES was > 100 µM (inactive) each time. The GI50 in the assay with OVCAR-4 was 82.2 µM (inactive); in the assay on OVCAR-5, > 100 µM (inactive); with OVCAR-8, > 100 µM (inactive); with PC-3, 91.6 µM (inactive); in the assay on SF-268, > 100 µM (inactive); in the assay on SK-MEL-5, > 100 µM (inactive). The GI50 in the assay on SR was > 100 µM (inactive).
`CC(=O)N1NC(c2ccccc2)=CC(=O)/C1=C/C(=O)c1ccccc1`: the GI50 is 53.1 µM (inactive) in the assay on A549; 29.7 µM (inactive) in the assay on CAKI-1; 29.8 µM (inactive) with CCRF-CEM; > 100 µM (inactive) in the assay on COLO 205; 49.2 µM (inactive) in the assay with EKVX; > 100 µM (inactive) in the assay with HCC 2998. In addition, the GI50 is 43.7 µM (inactive) in the assay on MCF7; > 100 µM (inactive) in the assay on MDA-MB-231; 20.2 µM (inactive) with MDA-MB-435; 30.6 µM (inactive) with MDA-N; 15.9 µM (inactive) in the assay on NCI-H522; 50.4 µM (inactive) in the assay on NCI/ADR-RES. In addition, the GI50 was 84.1 µM (inactive) in the assay on OVCAR-4; > 100 µM (inactive) in the assay on OVCAR-5; > 100 µM (inactive) in the assay on OVCAR-8; > 100 µM (inactive) with PC-3; 29.2 µM (inactive) in the assay with SF-268; 47.8 µM (inactive) in the assay with SK-MEL-5. Further, in the assay on SR, the GI50 was 20.7 µM (inactive).
With `COc1ccc(NC(=S)N/N=C/c2cccc(C)n2)cc1`, the GI50 in the assay on A549 is 5.22 µM (inactive); with CAKI-1 it was 4.25 µM (inactive); with CCRF-CEM, 2.82 µM (inactive); in the assay on COLO 205 it was 2.63 µM (inactive); in the assay with EKVX, 5.11 µM (inactive); with HCC 2998, 8.41 µM (inactive). For the same compound, the GI50 is 3.59 µM (inactive) in the assay with MCF7; 3.9 µM (inactive) with MDA-MB-231; 1.04 µM (active) with MDA-MB-435; 1.41 µM (inactive) in the assay with MDA-N; 0.203 µM (active) in the assay with NCI-H522; 2.78 µM (inactive) with NCI/ADR-RES. Moreover, the GI50 in the assay with OVCAR-4 is > 24.1 µM (inactive); in the assay with OVCAR-5, 31.5 µM (inactive); in the assay on OVCAR-8, 3.74 µM (inactive); in the assay with PC-3 it was 4.58 µM (inactive); with SF-268, 3.94 µM (inactive); with SK-MEL-5, 3.95 µM (inactive). Moreover, in the assay on SR, the GI50 was 3.42 µM (inactive).
In the case of `CCCNC(=O)c1cc(NC(=O)c2cc(NC(=O)CCS(=O)(=O)OC)cn2C)cn1C`, the GI50 with A549 was > 91 µM (inactive); with CAKI-1, > 52 µM (inactive); with CCRF-CEM, 0.902 µM (active); with COLO 205 it was 6.64 µM (inactive); with EKVX it was 51.1 µM (inactive); in the assay on HCC 2998 it was 43.5 µM (inactive). Further, the GI50 with MCF7 was 20.5 µM (inactive); with MDA-MB-231, 33.8 µM (inactive); with MDA-MB-435, 19.1 µM (inactive); with MDA-N, 20.9 µM (inactive); with NCI-H522, 1.87 µM (inactive); with NCI/ADR-RES, > 100 µM (inactive). The GI50 is 26.5 µM (inactive) with OVCAR-4; 40.9 µM (inactive) in the assay with OVCAR-5; 15.2 µM (inactive) in the assay with OVCAR-8; 10.2 µM (inactive) in the assay on PC-3; 17.1 µM (inactive) with SK-MEL-5; > 100 µM (inactive) with SR.
For the compound `CCOC(=O)c1cn2c(n1)sc1cc(Cl)ccc12`, the GI50 is 15.6 µM (inactive) in the assay on A549; 19.2 µM (inactive) in the assay with CAKI-1; 5.45 µM (inactive) in the assay with CCRF-CEM; 5.47 µM (inactive) in the assay on COLO 205; 18.7 µM (inactive) in the assay with EKVX; > 100 µM (inactive) with HCC 2998. Further, the GI50 was 4.2 µM (inactive) in the assay on MCF7; > 100 µM (inactive) in the assay on MDA-MB-231; 5.68 µM (inactive) with MDA-MB-435; 2.71 µM (inactive) in the assay with MDA-N; 31.2 µM (inactive) in the assay with NCI-H522; 19.6 µM (inactive) in the assay on NCI/ADR-RES. The GI50 in the assay with OVCAR-4 is > 100 µM (inactive); with OVCAR-5, 15 µM (inactive); in the assay with OVCAR-8 it was 21.9 µM (inactive); with PC-3, 30.6 µM (inactive); in the assay on SF-268, 30.6 µM (inactive); in the assay with SK-MEL-5, 7.76 µM (inactive). Moreover, the GI50 in the assay with SR was 1.55 µM (inactive).
For `COC(=O)/C=C\c1ccc2c(c1)CC1(C2)Cc2ccc(/C=C/C(=O)OC)cc2C1` (stereo unspecified), the GI50 in the assay with A549 was > 31.6 µM (inactive); in the assay on CAKI-1, 0.918 µM (active); with CCRF-CEM, > 31.6 µM (inactive); in the assay on COLO 205, > 31.6 µM (inactive); with EKVX it was > 31.6 µM (inactive); in the assay with HCC 2998 it was > 31.6 µM (inactive). Moreover, the GI50 with MCF7 was 21.2 µM (inactive); with MDA-MB-231, 17.2 µM (inactive); with MDA-MB-435 it was > 31.6 µM (inactive); with MDA-N, > 31.6 µM (inactive); in the assay on NCI-H522 it was 17.4 µM (inactive); in the assay on NCI/ADR-RES, > 31.6 µM (inactive). The GI50 in the assay on OVCAR-4 is 22.8 µM (inactive); with OVCAR-5 it was > 31.6 µM (inactive); with OVCAR-8 it was 30.8 µM (inactive); in the assay with PC-3 it was > 31.6 µM (inactive); in the assay with SF-268 it was > 100 µM (inactive); in the assay on SK-MEL-5, > 31.6 µM (inactive). Also, the GI50 in the assay with SR is 5.57 µM (inactive).
On to `O=C1COCCN1C(=O)c1ccccc1Cl`, for which the GI50 in the assay with A549 was > 100 µM (inactive); with CAKI-1 it was > 100 µM (inactive); in the assay with CCRF-CEM, > 100 µM (inactive); with EKVX, > 100 µM (inactive); in the assay with HCC 2998, > 100 µM (inactive); in the assay with MCF7, 34 µM (inactive). In addition, the GI50 with MDA-MB-231, in the assay on MDA-MB-435, in the assay with MDA-N, in the assay with NCI-H522, in the assay with NCI/ADR-RES and in the assay on OVCAR-4 was > 100 µM (inactive) each time. Also, the GI50 with OVCAR-5, in the assay on OVCAR-8, in the assay with PC-3, in the assay on SF-268, in the assay with SK-MEL-5 and in the assay on SR was > 100 µM (inactive) in each case.
`CC(CC(=O)O)(CC(=O)O)C(=O)O`: the GI50 in the assay with A549, with CAKI-1, in the assay with COLO 205, with EKVX, in the assay on HCC 2998 and in the assay with MCF7 was > 100 µM (inactive) throughout. For the same compound, the GI50 with MDA-MB-231, in the assay with MDA-MB-435, in the assay on MDA-N, in the assay with NCI-H522, with NCI/ADR-RES and in the assay on OVCAR-4 was > 100 µM (inactive) throughout. Also, the GI50 in the assay on OVCAR-5, in the assay on OVCAR-8, in the assay with PC-3, in the assay with SF-268, in the assay on SK-MEL-5 and in the assay on SR was > 100 µM (inactive) each time.

For the origin of these results see ChEMBL document CHEMBL1201862, “PubChem BioAssay data set” (2004).
